pIC50: −log10 of the molar value. *1 amine or outer side, *2 acyl side, *3 side chain or, on linkers, in order; H or OH if unused. Where a SMILES comes first, the peptide text is derived from it. Bridges are numbered along the chain shown (N, C = ends). [ ]: non-standard residue; d: D form. 2Nal = N[C@@H](Cc1ccc2ccccc2c1)C(=O)O; AEF = NCCOc1ccc(C[C@H](N)C(=O)O)cc1; X1 = O=C(Cc1ccc(CN[*:1])cc1)[*:2]; 3Pal = N[C@@H](Cc1cccnc1)C(=O)O; Cit = NC(=O)NCCC[C@H](N)C(=O)O; αMeL = CC(C)C[C@](C)(N)C(=O)O; Orn = NCCC[C@H](N)C(=O)O; Dab = NCC[C@H](N)C(=O)O
Experiments:
[1] = Peptide stability in simulated intestinal fluid (SIF); type: in vitro ADME; conditions: 37 °C, pH 6.8, porcine pancreatin 10 g/L, 10 µM; for remaining at 1 h, 10 µM / remaining at 4 h, 10 µM: pig, simulated intestinal fluid (SIF) with porcine pancreatin; for remaining at 4 h, 10 µM: read-out: SIF (% remaining 4 h)
Description: SGF was prepared by dissolving sodium chloride (0.2 g) in 50 mL of water. A volume of 0.7 mL of 10 M HCl was added to adjust the pH of the solution to 1.2 and the volume made up to 100 mL with water. […] SIF was prepared by dissolving monobasic potassium phosphate (0.68 g) in 50 mL of water and adjusting the pH to 6.8 with 1 M NaOH. The volume was subsequently made up to 100 mL with water. 200 mg porcine pancreatin (P1625, Sigma Aldrich) was gently dissolved into 20 mL preheated (37 °C) solution (10 g/L) immediately prior to the incubation.
The incubation was performed at 37 °C with gentle shaking. […] After the last timepoint, the sampling plate was mixed for 10 min on a shaking table and centrifuged 10 min at 2200 g. 70 µL resulting supernatant was diluted with 150 µL water, mixed and centrifugated before analysis by liquid chromatography high resolution mass spectrometry. […] Percent remaining at each timepoint was calculated relative to timepoint zero based on absolute peak areas.
Compounds with a SIF stability (after 4 h) above 70% are considered highly SIF stable.

[2] = target: T1, human IL-23R (Homo sapiens, UniProt Q5VWK5); assay: biochemical; conditions: for Emax: read-out: % displacement (hIL-23R binding)
T1 sequence (Q5VWK5 22-629): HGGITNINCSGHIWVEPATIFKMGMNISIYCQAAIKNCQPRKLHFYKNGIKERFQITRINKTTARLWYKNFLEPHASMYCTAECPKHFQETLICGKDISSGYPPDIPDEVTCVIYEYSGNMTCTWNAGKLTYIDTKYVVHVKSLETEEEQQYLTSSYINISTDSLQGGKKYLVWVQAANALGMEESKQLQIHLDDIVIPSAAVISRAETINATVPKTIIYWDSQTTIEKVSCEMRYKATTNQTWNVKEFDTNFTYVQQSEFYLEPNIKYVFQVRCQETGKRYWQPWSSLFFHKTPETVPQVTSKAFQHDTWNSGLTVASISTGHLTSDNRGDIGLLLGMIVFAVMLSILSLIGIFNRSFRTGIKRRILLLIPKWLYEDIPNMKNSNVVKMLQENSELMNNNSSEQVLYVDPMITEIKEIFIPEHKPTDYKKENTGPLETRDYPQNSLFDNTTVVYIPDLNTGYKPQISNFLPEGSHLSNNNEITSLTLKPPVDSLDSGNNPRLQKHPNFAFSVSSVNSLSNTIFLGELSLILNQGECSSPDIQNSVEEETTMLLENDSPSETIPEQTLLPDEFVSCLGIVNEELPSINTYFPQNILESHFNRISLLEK
Description: The compound binding affinity for IL-23R was estimated by the ability of compounds to displace a fluorophore-labelled reference compound from the human IL-23R. The assay principle relies on Bioluminescence Resonance Energy Transfer (BRET) between a fluorophore-labelled reference compound binding to the IL-23R part of a fusion protein consisting of the IL-23R fused to a Nanoluc luciferase enzyme (Nanoluc). The Nanoluc is placed in the N-terminus in close proximity to the binding domain of the ligand. Upon close proximity between the fluorophore of the fluorophore-labelled compound and the Nanoluc of the fusion protein, bioluminescence energy generated from conversion of a Nanoluc substrate, is transferred to the fluorophore resulting in an increase in BRET. In presence of an unlabelled compound, the unlabelled compound displaces the fluorophore-labelled peptide from its binding site resulting in a decrease in BRET. The concentration for which half of the fluorophore-labelled peptide is displaced by the unlabelled compound depends on the affinity of the compound for the IL-23R, and is termed the IC50 concentration.
The plasmid also contained a gene to confer resistance for the antibiotic hygromycin. A cell line stably expressing the Nluc-IL23R fusion protein was generated by transfection of HEK293 cells with the expression plasmid and selected with hygromycin for 3 weeks in Growth medium consisting of DMEM w/ Glutamax-I containing, 10% V/V FBS, 1% V/V P/S, 1 mM Sodium Pyruvate, and 1X NEAA, and 0.3 mg/mL hygromycin. The remaining cells were propagated and considered a stable expressing Nluc-IL23R fusion protein pool clone.
Cells expressing the Nluc-IL23R fusion protein were expanded in Growth medium and membranes prepared by homogenization of a cell pellet from 18 T175 flasks (4 °C in subsequent steps). The cell pellet was lysed Tris 10 mM, 7.5, 1 mM EDTA and protease inhibitors (Complete, Roche) and homogenized using a 15 mL glass-dounce by 50 strokes. The homogenate was spun at spin @1500 rpm for 10 min, the supernatant transferred to SV-34 tubes and spun at 40000g for 20 min at 4 °C to pellet the crude membranes. The supernatant was then removed, the pellet resuspended in 5 mL buffer containing 50 mM HEPES pH 7.4, 5 mM EGTA, and 5 mM MgCl2, and homogenized. Aliquots of the resuspended and homogenized membranes containing the Nluc-IL23R fusion protein were stored at -80 °C until use.
The plate was sealed with light impermeable plate seals, and incubated on an orbital shaker 400 rpm for 2 hours at room temperature. To determine the BRET ratio, the plate seal was removed and 25 µL of the Nanoluc substrate (Promega N1572) diluted 1:500 was added to each well and incubated for 1-2 minutes on an orbital shaker at 400 rpm. […] The BRET ratio was calculated as the fluorescence from the TAMRA/nanoluc bioluminescence.
Compound potency (IC50) and maximal displacement (% displacement) were estimated by computer-aided curve fitting using a 4-parameter logistic (4PL) non-linear model. […]
In this application, the inventors provide the data as IC50 values.

| SMILES | SIF (% remaining 1 h) [1] | SIF (% remaining 4 h) [1] | % displacement (hIL-23R binding) [2] | pIC50 [2] | remaining at 1 h, 10 µM [1] | remaining at 4 h, 10 µM [1] | Emax [2] |
| --- | --- | --- | --- | --- | --- | --- | --- |
| CC(C)C[C@@H]1NC(=O)[C@H](Cc2c[nH]c3ccccc23)NC(=O)[C@H](Cc2c[nH]c3ccccc23)NC(=O)[C@@H]2CSCC(=O)CSC[C@H](NC(=O)[C@H]([C@@H](C)O)NC(=O)[C@@H](NC(=O)CN)CSCC(=O)CSC[C@@H](C(=O)N[C@@H](CO)C(N)=O)NC1=O)C(=O)N[C@@H](Cc1c[nH]c3ccccc13)C(=O)N[C@@H](CCC(=O)O)C(=O)N2 (single isomer, unassigned) [I1 (isomer 3), H-GC(1a)TC(2a)WEC(2a)WWLC(1a)S-[NH2], reference compound] | 0% | 0% | – | – | – | – | – |
| CSCC[C@H](NC(=O)[C@@H]1CSCC(=O)CSC[C@H](NC(=O)[C@@H](N)CCC(=O)O)C(=O)N[C@@H](Cc2c[nH]c3ccccc23)C(=O)N[C@@H](CC(C)C)C(=O)N[C@H]2CSCC(=O)CSC[C@H](NC(=O)[C@H](CC(N)=O)NC(=O)[C@H](CCCNC(=N)N)NC(=O)[C@H](Cc3ccc(O)cc3)NC(=O)[C@H](Cc3ccc(O)cc3)NC2=O)C(=O)N[C@@H](CC(N)=O)C(=O)N1)C(N)=O (single isomer, unassigned) [I4 (isomer 3), H-EC(4a)WLC(5a)YYRNC(5a)NC(4a)M-[NH2], reference compound] | 0% | 0% | – | – | – | – | – |
| CNC(=O)[C@H](Cc1cccnc1)NC(=O)[C@H](CCN)NC(=O)[C@@H]1CCC(=O)NCc2ccc(cc2)CC(=O)N[C@@H](C)C(=O)N[C@H]2CCC(=O)NCC[C@H](NC(=O)[C@H](CCC(N)=O)NC(=O)[C@H](Cc3c[nH]c4ccccc34)NC2=O)C(=O)N[C@@H](Cc2ccc(OCCN)cc2)C(=O)N[C@@H](Cc2ccc3ccccc3c2)C(=O)N[C@@](C)(CC(C)C)C(=O)N1 [Compound 20, [4-Aminomethyl-phenylacetyl](1c)*AE(2c)WQ[Dab](2c)[Y(2-aminoethoxy)][2-Nal][2-Me-Leu]E(1c)[Dab][3-(3-Pyridyl)-Ala]-[NHMe]] | – | – | 97% | 10.92 | 109% | 90% | – |
| CNC(=O)[C@H](Cc1cccnc1)NC(=O)[C@H](CCN)NC(=O)[C@@H]1CCC(=O)NCc2ccc(cc2)CC(=O)N[C@@H](Cc2ccccc2)C(=O)N[C@H]2CCC(=O)NCC[C@H](NC(=O)[C@H](CCC(N)=O)NC(=O)[C@H](Cc3c[nH]c4ccccc34)NC2=O)C(=O)N[C@@H](Cc2ccc(OCCN)cc2)C(=O)N[C@@H](Cc2ccc3ccccc3c2)C(=O)N[C@@](C)(CC(C)C)C(=O)N1 [Compound 21, [4-Aminomethyl-phenylacetyl](1c)*FE(2c)WQ[Dab](2c)[Y(2-aminoethoxy)][2-Nal][2-Me-Leu]E(1c)[Dab][3-(3-Pyridyl)-Ala]-[NHMe]] ([X1]FEWQ[Dab][AEF][2Nal][αMeL]E[Dab][3Pal]-NHMe; lactam 3-6, N-10) | – | – | – | 10.85 | 53% | – | 95% |
| CNC(=O)[C@H](Cc1cccnc1)NC(=O)[C@H](CCN)NC(=O)[C@@H]1CCC(=O)NCc2ccc(cc2)CC(=O)N[C@@H](CO)C(=O)N[C@H]2CCC(=O)NCC[C@H](NC(=O)[C@H](CCCNC(N)=O)NC(=O)[C@H](Cc3c[nH]c4ccccc34)NC2=O)C(=O)N[C@@H](Cc2ccc(OCCN)cc2)C(=O)N[C@@H](Cc2ccc3ccccc3c2)C(=O)N[C@@](C)(CC(C)C)C(=O)N1 [Compound 26, [4-Aminomethyl-phenylacetyl](1c)*SE(2c)W[Cit][Dab](2c)[Y(2-aminoethoxy)][2-Nal][2-Me-Leu]E(1c)[Dab][3-(3-Pyridyl)-Ala]-[NHMe]] ([X1]SEW[Cit][Dab][AEF][2Nal][αMeL]E[Dab][3Pal]-NHMe; lactam 3-6, N-10) | – | – | – | 10.82 | – | 91% | 95% |
| CNC(=O)[C@H](Cc1cccnc1)NC(=O)[C@H](CCN)NC(=O)[C@@H]1CCC(=O)NCc2ccc(cc2)CC(=O)N[C@@H](CO)C(=O)N[C@H]2CCC(=O)NCC[C@H](NC(=O)[C@H](CCCN)NC(=O)[C@H](Cc3c[nH]c4ccccc34)NC2=O)C(=O)N[C@@H](Cc2ccc(OCCN)cc2)C(=O)N[C@@H](Cc2ccc3ccccc3c2)C(=O)N[C@@](C)(CC(C)C)C(=O)N1 [Compound 28, [4-Aminomethyl-phenylacetyl](1c)*SE(2c)W[Orn][Dab](2c)[Y(2-aminoethoxy)][2-Nal][2-Me-Leu]E(1c)[Dab][3-(3-Pyridyl)-Ala]-[NHMe]] ([X1]SEW[Orn][Dab][AEF][2Nal][αMeL]E[Dab][3Pal]-NHMe; lactam 3-6, N-10) | – | – | 97% | – | – | 110% | – |
| CNC(=O)CC[C@@H]1NC(=O)[C@H](Cc2c[nH]c3ccccc23)NC(=O)[C@@H]2CCC(=O)NCC[C@H](NC1=O)C(=O)N[C@@H](Cc1ccc(OCCN)cc1)C(=O)N[C@@H](Cc1ccc3ccccc3c1)C(=O)N[C@@](C)(CC(C)C)C(=O)N[C@H](C(=O)N[C@@H](CCN)C(=O)N[C@@H](Cc1cccnc1)C(=O)NC)CCC(=O)NCc1ccc(cc1)CC(=O)N[C@@H](CO)C(=O)N2 [Compound 29, [4-Aminomethyl-phenylacetyl](1c)*SE(2c)W[Q(Me)][Dab](2c)[Y(2-aminoethoxy)][2-Nal][2-Me-Leu]E(1c)[Dab][3-(3-Pyridyl)-Ala]-[NHMe]] ([X1]SEWE(NHMe)[Dab][AEF][2Nal][αMeL]E[Dab][3Pal]-NHMe; lactam 3-6, N-10) | – | – | 96% | – | – | 92% | – |
| CNC(=O)[C@H](Cc1cccnc1)NC(=O)[C@H](CCN)NC(=O)[C@@H]1CCC(=O)NCc2ccc(cc2)CC(=O)N[C@@H](CO)C(=O)N[C@H]2CCC(=O)NCC[C@H](NC(=O)[C@H](CCC(=O)N(C)C)NC(=O)[C@H](Cc3c[nH]c4ccccc34)NC2=O)C(=O)N[C@@H](Cc2ccc(OCCN)cc2)C(=O)N[C@@H](Cc2ccc3ccccc3c2)C(=O)N[C@@](C)(CC(C)C)C(=O)N1 [Compound 30, [4-Aminomethyl-phenylacetyl](1c)*SE(2c)W[Q(2Me)][Dab](2c)[Y(2-aminoethoxy)][2-Nal][2-Me-Leu]E(1c)[Dab][3-(3-Pyridyl)-Ala]-[NHMe]] ([X1]SEWE(NMe2)[Dab][AEF][2Nal][αMeL]E[Dab][3Pal]-NHMe; lactam 3-6, N-10) | – | – | 104% | 10.74 | – | 94% | – |

From patent EP4471049A1 (Zealand Pharma A/S, priority 2023, dated 2024)
